In brackets after ≈: the same amount, converted by molar mass. Read-outs that look alike come from different tables or passages of the source.
Assays:
[1] = target: T1, human TRPV1 (Homo sapiens, UniProt Q8NER1); test: pH-based assay (Fura-2 AM Ca2+ response to low pH, TRPV1/CHO cells)
Experimental: For this Protocol, a Chinese Hamster Ovary cell line (CHO) that constitutively expresses human TRPV1 is used (TRPV1/CHO cells).
TRPV1/CHO cells are seeded in the 96-well clear-bottom black-wall plate (Nunc) at densities of 1-2×10^4 cells/well and grown in 100 μL of culture medium (alpha-MEM supplemented with 10% FBS, 20 mM HEPES, 1 mg/mL geneticin and 1% antibiotic-antimycotic mixed stock solution) for 1-2 days before the experiment.
(2) The 96-well plate is incubated at 37° C. for 45 min.
(3) The loading buffer is removed from each well. […] The wells are then refilled with 80 μL of measuring buffer.
(4) After an incubation at 4° C. for 15 min, the 96-well plate is transferred to FDSS-3000 (Hamamatsu photonics, Japan).
(5) The Fura-2 fluorescent intensity is monitored at a wavelength of 340 nm and at 380 nm, respectively, at a rate of 0.5 Hz for a total of 240 seconds. After 16 time points (32 sec) of baseline detection, 20 μL of agonist solution is added to each well. […]
(6) Fluorescence intensity ratio refers to the fluorescence intensity at 340 nm over the fluorescence intensity at 380 nm at a particular time point. […]
(7) Maximal signal ratios from each well are calculated as output data using the FDSS-3000 analysis program. Data are analyzed using Excel (Microsoft) and XLfit (idbs) software. […]
(6) Fura-2 fluorescent intensity is monitored as described in 2.2.(5) of this Protocol. […]

[2] = Solubility of diol compounds in aqueous solution; type: physicochemical
[3] = target: T1, human TRPV1; test: Capsaicin-based assay (Fluo-4 calcium fluorescence, TRPV1/CHO cells); type: cell-based; design: expressed in transfected cells
Experimental: One day prior to assay, TRPV1/CHO cells are seeded in 96-well clear-bottom black plates (20,000 cells/well) in growth media. On the day of the experiment, the cells are washed with 0.2 ml 1× Hank's Balanced Salt Solution (Life Technologies) containing 1.6 mM CaCl2 and 20 mM HEPES, pH 7.4 (“wash buffer”). Subsequently, the cells are loaded by incubation in 0.1 ml of wash buffer containing Fluo-4 at 3 µM final concentration. After 1 hour, the cells are washed twice with 0.2 ml wash buffer and resuspended in 0.1 ml wash buffer. The plates are then transferred to a Fluorescence Imaging Plate Reader (Molecular Devices). Fluorescence intensity is monitored for 15 seconds to establish a baseline. Subsequently, test compounds diluted in assay buffer (1× Hank's Balanced Salt Solution containing 1 mM CaCl2 and 20 mM HEPES, pH 7.4) containing 1% DMSO are added to the cell plate and fluorescence is monitored for 2 minutes. […] Human TRPV1 is then activated by the addition of 50 μL capsaicin (100 nM final concentration) and plates incubated for an additional 3 min. Data are collected over the entire time course and analyzed using Excel and the curve-fitting Formula GraphPad Prism.

[4] = pH 1.2, read-out: Solubility (μM) pH: 1.2
[5] = pH 6.8, aqueous buffer, read-out: Solubility (μM) pH: 6.8
[6] = TRPV1/CHO cells, capsaicin 100 nM final concentration, read-out: Potency, IC50(nM) Capsaicin assay

T1 sequence (Q8NER1 whole entry): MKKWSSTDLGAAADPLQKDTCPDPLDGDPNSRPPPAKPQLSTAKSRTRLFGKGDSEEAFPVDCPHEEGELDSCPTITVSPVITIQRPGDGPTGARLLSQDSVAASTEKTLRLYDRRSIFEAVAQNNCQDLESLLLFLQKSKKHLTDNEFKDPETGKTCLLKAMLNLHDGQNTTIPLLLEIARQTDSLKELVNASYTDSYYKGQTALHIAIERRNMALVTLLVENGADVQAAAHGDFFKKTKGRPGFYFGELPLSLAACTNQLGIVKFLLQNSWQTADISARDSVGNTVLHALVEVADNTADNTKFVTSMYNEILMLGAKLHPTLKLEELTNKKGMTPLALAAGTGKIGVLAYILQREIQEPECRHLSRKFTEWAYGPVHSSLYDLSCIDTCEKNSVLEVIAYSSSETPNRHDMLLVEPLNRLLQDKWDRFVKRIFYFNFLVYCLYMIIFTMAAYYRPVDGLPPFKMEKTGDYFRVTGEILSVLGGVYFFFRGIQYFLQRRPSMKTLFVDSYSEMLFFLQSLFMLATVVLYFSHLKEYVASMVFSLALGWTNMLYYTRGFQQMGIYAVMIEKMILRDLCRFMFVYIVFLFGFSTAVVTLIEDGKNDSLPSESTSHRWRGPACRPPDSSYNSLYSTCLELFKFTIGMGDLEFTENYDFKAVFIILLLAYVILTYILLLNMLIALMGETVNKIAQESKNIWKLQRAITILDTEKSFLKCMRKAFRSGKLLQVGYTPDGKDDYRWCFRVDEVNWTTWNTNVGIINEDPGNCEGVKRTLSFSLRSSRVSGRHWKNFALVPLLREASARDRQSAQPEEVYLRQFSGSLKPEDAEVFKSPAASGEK

Row | Structure (SMILES) | IC50 [1] | solubility [2, 4] | solubility [2, 5] | IC50 [3] | IC50 [3, 6]
1 | O=C(Nc1ccc(C(F)(F)F)cc1)C1=CCN(c2ncc([C@H](O)CO)cc2F)CC1 [Compound A14] | 9.5 ± 2.5 nM | > 50 µM | 19 µM (≈ 8.08 µg/mL) | 23.8 ± 6.2 nM | 
2 | O=C(Nc1ccc(C(F)(F)F)cc1)C1=CCN(c2ncc([C@@H](O)CO)cc2F)CC1 [Compound B14] | 14.7 ± 1.01 nM |  |  | 29.4 ± 6.3 nM | 
3 | O=C(Nc1nc2ccc(F)cc2s1)C1=CCN(c2ncc([C@H](O)CO)cc2F)CC1 [Compound I5, (S)-1-(5-(1,2-dihydroxyethyl)-3-fluoropyridin-2-yl)-N-(6-fluorobenzo[d]thiazol-2-yl)-1,2,3,6-tetrahydropyridine-4-carboxamide] |  | 46 µM (≈ 19.9 µg/mL) | 1 µM (≈ 0.432 µg/mL) |  | 35.6 ± 5.1 nM

Next, values leading:

Row | IC50 [1] | solubility [2, 4] | solubility [2, 5] | IC50 [3] | IC50 [3, 6] | Structure (SMILES)
4 |  | > 50 µM | 25 µM (≈ 10.7 µg/mL) |  | 45.9 ± 4.2 nM | O=C(Nc1ccc(C(F)(F)F)cn1)C1=CCN(c2ncc([C@H](O)CO)cc2F)CC1 [Compound E2]
5 |  | > 50 µM | 21 µM (≈ 8.95 µg/mL) |  | 109 ± 25.5 nM | O=C(Nc1ccc(C(F)(F)F)cn1)C1=CCN(c2ncc([C@@H](O)CO)cc2F)CC1 [Compound F2]

Source: US8389549B2, “Substituted pyridines useful for treating pain” (Purdue Pharma L.P., priority 2007, dated 2013)
